# Tests used:
# HAAH gene expression = test: insulin stimulation of HAAH gene expression in FOCUS HCC cells; format: cell-based, human; settings: 20 and 40 U insulin, serum free medium, after 16 hr of serum starvation
# Description: IRS-1 mediated signal transduction pathway is activated in 95% of human HCC tumors compared to the adjacent uninvolved liver tissue. HAAH is a downstream effector gene involved in this signal transduction pathway. […] A high level of HAAH protein is expressed in HCC and cholangiocarcinoma compared to normal hepatocytes and bile ducts.
# human AAH cDNA (pHAAH) = test: in vitro cell free transcription translation assay (TNT Quick Coupled System); format: biochemical; settings: 100× or 1000× excess oligonucleotide; rabbit reticulocyte lysate, [35S] methionine, SDS-PAGE autoradiography
# Protocol: Using an in vitro cell free transcription translation assay (TNT Quick Coupled System), the human AAH cDNA (pHAAH) was used to synthesize AAH protein. […] The translated product was labeled with [^35S] methionine in the presence of reaction buffer, RNA polymerase, amino acid mixture, and ribonuclease inhibitor (RNAsin). The products were analyzed by SDS-PAGE followed by autoradiography. A luciferase (Luc) expressing plasmid was used as a positive control. In the second and third lanes, synthesis of the ˜85 kD AAH protein is shown (AAH, arrow) using 1 or 2 micrograms of plasmid as the template and the T7 DNA-dependent RNA polymerase primer/promoter to generate mRNA.
# AAH = test: MICE assay of AAH immunoreactivity in transfected cells; format: cell-based; settings: relative to cells transfected with random oligonucleotide
# Protocol: Inhibition of HAAH gene expression is enhanced by contacting cells with a phosphorothioate derivative of the HAAH antisense. Phosphorothioate antisense derivatives are made using methods well known in the art. The MILQ assay was used to measure gene expression resulting from antisense oligonucleotide gene delivery. Cells were contacted with AAH Location-6 antisense DNA, and AAH protein expression was measured using methods known in the art, e.g., the MICE assay (de la Monte, et al, 1999, Biotechniques), to determine if it was inhibited by hybridization with the oligonucleotide. The MICE assay is used to measure inimunoreactivity in cultured cells without the need to extract proteins or perform gel electrophoresis. This assay is more sensitive than Western blot analysis. Using the MICE assay, AAH immunoreactivity was assessed in cells transfected with non-relevant (random) oligonucleotide sequences, specific antisense oligonucleotides (Location-6), and a phosphorothioate Location-6 antisense oligonucleotide.
# AAH in PNET2 cells = test: Western blot of AAH expression in treated PNET2 cells; format: cell-based, Human
# Protocol: Studies were conducted to determine whether AAH expression was modulated with neurite (filopodia) extension (sprouting) as occurs with invasive growth of malignant neoplasms. Human PNET2 CNS-derived and SH-Sy5y neuroblastoma cells were cultured and stimulated for 0, 1, 2, 3, 5, or 7 days with 100 nM phorbol […] or 10 μM retinoic acid to induce sprouting. […] For both studies, AAH expression was evaluated by Western blot analysis using the an HAAH-specific antibody.
# (§1) Cells grown in 10 cm^2 dishes were lysed and homogenized in a standard radioimmunoprecipitation assay RIPA buffer containing protease and phosphatase inhibitors. The supernatants collected after centrifuging the samples at 12,000×g for 10 minutes to remove insoluble debris were used for Western blot analysis. Protein concentration was measured using the BCA assay (Pierce Chemical Co, Rockford, Ill.). Samples containing 60 μg of protein were electrophoresed in sodium dodecyl sulfate polyacrylamide gels (SDS-PAGE) and subjected to Western blot analysis. Replicate blots were probed with the individual antibodies. Immunoreactivity was detected with horseradish peroxidase conjugated IgG (Pierce Chemical Co, Rockford, Ill.) and enhanced chemiluminescence reagents. To quantify the levels of protein expression, non-saturated autoradiographs were subjected to volume densitometry using NIH Image software, version 1.6. […]
# AAH in SH-Sy5y cells = test: Western blot of AAH expression in treated SH-Sy5y cells; format: cell-based, Human; settings: up to 7 days, FIG. 5B
# Protocol: Studies were conducted to determine whether AAH expression was modulated with neurite (filopodia) extension (sprouting) as occurs with invasive growth of malignant neoplasms. Human PNET2 CNS-derived and SH-Sy5y neuroblastoma cells were cultured and stimulated for 0, 1, 2, 3, 5, or 7 days with 100 nM phorbol […] or 10 μM retinoic acid to induce sprouting. In addition, to examine the effects of neurite retraction on AAH expression, subconfluent cultures were treated for 24 hours with low concentrations (10-40 μM) of H2O2. For both studies, AAH expression was evaluated by Western blot analysis using the an HAAH-specific antibody.
# as §1, with “Samples containing 60 μg of protein were electrophoresed in sodium dodecyl sulfate polyacrylamide gels (SDS-PAGE) and subjected to Western blot analysis. Replicate blots were probed with the individual antibodies.” left out
# PNET2 cells = test: Trypan blue dye exclusion viability; format: cell-based, Human; settings: 24 hours, sub-lethal concentrations of H2O2
# Protocol: FIGS. 5A-D are bar graphs showing increased AAH expression in PNET2 (FIGS. 5A, 5C) and SH-Sy5y (FIG. 5B) cells treated with retinoic acid (FIGS. 5A, 5B) or phorbol ester myristate (PMA; FIG. 5C) to induce neurite outgrowth as occurs during tumor cell invasion. The cells were treated with 10 μM retinoic acid or 100 nM PMA for 0, 1, 2, 3, 4, or 7 days. Cell lysates were analyzed by Western blot analysis using an HAAH-specific monoclonal antibody to detect the 85 kDa AAH protein. The levels of immunoreactivity were measured by volume densitometry (arbitrary units). The graphs indicate the mean±S.D. of results obtained from three separate experiments. In FIG. 5D, PNET2 cells were treated for 24 hours with sub-lethal concentrations of H2O2 to induce neurite retraction. […] Similar results were obtained for SH-Sy5y cells.
# To examine the effect of AAH expression on neurite retraction, PNET2 and SH-Sy5y cells were treated with low concentrations (8-40 μM) of H2O2.
compound,measurement,setting,value
Insulin: insulin used to stimulate FOCUS HCC cells,HAAH gene expression,HAAH gene expression,upregulation
"5′ ATCATGCAATGGCCCAGCGTAA 3′ (sense ATCATGCAATGGCCCAGCGTAA; listed as DNA, chemistry not given here) [sense oligonucleotide, sense oligonucleotide beginning at Location-3, control]",inhibition of AAH protein synthesis,human AAH cDNA (pHAAH),no effect
"5′ TTACGCTGGGCCATTGCACG 3′ (antisense TTACGCTGGGCCATTGCACG; listed as DNA, chemistry not given here) [Location-6, AAH antisense oligonucleotide (20 mer)]",AAH immunoreactivity,AAH,reduced levels
"CCCCCCCCCCCCCC(=O)O[C@@H]1[C@@H](C)[C@@]2(O)[C@@H](C=C(CO)C[C@]3(O)C(=O)C(C)=C[C@@H]23)[C@@H]2C(C)(C)[C@]12OC(C)=O [PMA, phorbol ester myristate]",increase in levels of AAH protein,"AAH in PNET2 cells; 24 hours after exposure, 10 μM retinoic acid or 100 nM PMA",at least two-fold
same,RA- or PMA-stimulated increases in AAH expression,AAH in SH-Sy5y cells,highest after 7 days of treatment
OO [H2O2],Viability of the cells,PNET2 cells,greater than 90%
same,levels of AAH protein,"AAH in PNET2 cells; 24 hours, 8-40 μM H2O2, FIG. 5D",dose-dependent reductions

# — US6835370B2, “Diagnosis and treatment of malignant neoplasms” (Rhode Island Hospital, priority 1999, dated 2004)
